According to BindingDB's records for patent US11583538 (Venenum Biodesign, 2023):

Target: T1, Three-prime repair exonuclease 1 (Homo sapiens, UniProt Q9NSU2)
T1 sequence (Q9NSU2 whole entry): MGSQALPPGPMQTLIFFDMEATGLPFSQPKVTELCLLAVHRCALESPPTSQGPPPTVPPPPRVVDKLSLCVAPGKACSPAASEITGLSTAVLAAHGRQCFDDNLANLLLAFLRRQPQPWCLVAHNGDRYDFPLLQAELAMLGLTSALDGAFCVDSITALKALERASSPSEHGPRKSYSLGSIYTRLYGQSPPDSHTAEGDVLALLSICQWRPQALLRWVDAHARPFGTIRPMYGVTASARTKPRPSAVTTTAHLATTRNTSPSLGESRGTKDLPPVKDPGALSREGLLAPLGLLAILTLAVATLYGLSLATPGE
Assay: TREX1 Exonuclease Assay
Description: For human TREX1, the nucleotide sequence of the gene construct was codon optimized for expression in the bacterial host. The sequence was incorporated into the pMAL-c5e vector (NEB) downstream of a solubility-promoting MBP (maltose binding protein) fusion partner. The fusion protein product was expressed in E. coli strain BL21 (DE3) (Millipore) and purified in a series of chromatographic steps. Initial steps were conducted using a dextrin sepharose affinity column followed by a Q-sepharose ion exchange column (both GE Healthcare). After the second column the MBP partner was removed by incubation with enterokinase (NEB). Further purification was carried out with the second application of a Q-sepharose column followed by a Superdex 75 (GE Healthcare) size exclusion column. Finally, a heparin sepharose column (GE Healthcare) was applied to remove contaminating nucleotides. […] Next, 4 μL of human TREX1 (0.5 nM), or murine TREX1 (1 nM), diluted in assay buffer (20 mM Tris pH 7.5, 5 mM MgCl, 100 μg/mL BSA, 0.002% Triton X-100, 2 mM DTT), was added to the assay plate. After incubating for 30 minutes, 4 μL of labeled DNA oligonucleotide (500 nM) in assay buffer was added to initiate TREX1 exonuclease activity. The reaction was allowed to proceed for 45 minutes at room temperature prior to the addition of 4 μL of 150 mM EDTA to halt TREX1 activity.

Compound | IC50 [nM]
N[C@@H]1C[C@H]2C(=O)N([C@@H](CCC(=O)O)C(=O)NCc3ccc(Cl)c(Cl)c3)CCC(CCc3ccccc3)N2C1 (stereo not given in full) [US11583538, Example 29] | < 1000
N[C@@H]1C[C@H]2C(=O)N([C@H](CCC(=O)O)C(=O)NCc3ccc(Cl)c(Cl)c3)CCC(COc3cccc(F)c3)N2C1 (stereo not given in full) [US11583538, Example 77] | < 1000
N[C@@H]1C[C@H]2C(=O)N([C@H](CCC(=O)O)C(=O)NCc3ccc(Cl)c(Cl)c3)CCC(COc3ccccc3F)N2C1 (stereo not given in full) [US11583538, Example 79] | < 1000
CC(C)C[C@H](CNS(=O)(=O)c1ccc(Cl)c(Cl)c1)N1CCC(CCc2ccccc2)N2C[C@H](N)C[C@H]2C1=O (stereo not given in full) [US11583538, Example 81] | < 1000
N[C@@H]1C[C@H]2C(=O)N([C@@H]3CCCN(S(=O)(=O)c4ccc(Cl)c(Cl)c4)C3)CCC(CCc3ccccc3)N2C1 (stereo not given in full) [US11583538, Example 83] | < 1000
COC(=O)CC[C@H](C(=O)NCc1ccc(Cl)c(Cl)c1)N1CCC(COc2cccc(F)c2)N2C[C@H](N)C[C@H]2C1=O (stereo not given in full) [US11583538, Example 90] | < 1000
COC(=O)CC[C@H](C(=O)NCc1ccc(Cl)c(Cl)c1)N1CCC(COc2ccc(F)cc2)N2C[C@H](N)C[C@H]2C1=O (stereo not given in full) [US11583538, Example 91] | < 1000
CCOC(=O)CC[C@H](C(=O)NCc1ccc(Cl)c(Cl)c1F)N1CCC(CCc2ccccc2)N2C[C@H](N)C[C@H]2C1=O (stereo not given in full) [US11583538, Example 93] | < 1000
CCOC(=O)CC[C@H](C(=O)NCc1ccc(Cl)c(Cl)n1)N1CCC(CCc2ccccc2)N2C[C@H](N)C[C@H]2C1=O (stereo not given in full) [US11583538, Example 95] | < 1000
N[C@@H]1C[C@H]2C(=O)N([C@H](CCC(=O)NO)C(=O)NCc3ccc(Cl)c(Cl)c3)CCC(COc3cccc(F)c3)N2C1 (stereo not given in full) [US11583538, Example 114] | < 1000
N[C@@H]1C[C@H]2C(=O)N([C@H](CSc3ccccc3O)C(=O)NCc3ccc(Cl)c(Cl)c3)CCC(CCc3ccccc3)N2C1 (stereo not given in full) [US11583538, Example 123] | < 1000
N[C@@H]1C[C@H]2C(=O)N([C@H](CS(=O)(=O)c3ccccc3O)C(=O)NCc3ccc(Cl)c(Cl)c3)CCC(CCc3ccccc3)N2C1 (stereo not given in full) [US11583538, Example 124] | < 1000
CC(C)C[C@H](C(=O)NCc1ccc(Cl)c(Cl)c1)N1CCC(C[S+]([O-])c2ccccc2)N2C[C@H](N)C[C@H]2C1=O (stereo not given in full) [US11583538, Example 125A] | < 1000
N[C@@H]1C[C@H]2C(=O)N([C@H](CCNC(=O)C3CC3)C(=O)NCc3ccc(Cl)c(Cl)c3)CCC(CCc3ccccc3)N2C1 (stereo not given in full) [US11583538, Example 130] | < 1000
N[C@@H]1C[C@H]2C(=O)N([C@H](CCC(=O)O)C(=O)NCc3cc(Cl)c(Cl)c[n+]3[O-])CCC(CCc3ccccc3)N2C1 (stereo not given in full) [US11583538, Example 134] | < 1000
